US20210238192A1, “VASCULAR ADHESION PROTEIN-1 (VAP-1) MODULATORS AND THERAPEUTIC USES THEREOF” (Blade Therapeutics, Inc., priority 2018, published 2021)

How the values were obtained:
Type in all cases: biochemical
Human MAO-A = biological target: T1, Human MAO-A (Homo sapiens, UniProt P21397); assay: MAO-A inhibition (Amplex Red continuous fluorescence assay); conditions: 30 min pre-incubation at room temp; substrate tyramine; read-out: Human MAO-A IC50
T1 sequence (P21397 1-527): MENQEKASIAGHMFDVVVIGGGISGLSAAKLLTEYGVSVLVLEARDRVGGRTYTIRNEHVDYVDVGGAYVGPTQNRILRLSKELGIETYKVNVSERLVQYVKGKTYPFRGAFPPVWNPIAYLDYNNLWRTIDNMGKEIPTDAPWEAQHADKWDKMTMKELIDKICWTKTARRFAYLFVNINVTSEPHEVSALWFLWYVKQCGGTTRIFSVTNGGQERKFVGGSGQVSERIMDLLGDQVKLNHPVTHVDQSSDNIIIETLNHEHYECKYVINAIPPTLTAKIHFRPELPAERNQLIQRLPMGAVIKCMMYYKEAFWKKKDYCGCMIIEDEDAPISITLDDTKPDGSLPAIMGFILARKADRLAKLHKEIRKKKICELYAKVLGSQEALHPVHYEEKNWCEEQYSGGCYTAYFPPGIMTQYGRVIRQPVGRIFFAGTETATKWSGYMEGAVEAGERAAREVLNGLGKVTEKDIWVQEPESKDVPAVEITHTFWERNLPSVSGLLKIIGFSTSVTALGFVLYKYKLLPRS
Procedure, shortened: (§1)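 Continuous Amplex Red/HRP fluorescence read of H2O2 (ex/em 510/565 nm, 5 min). Substrates and buffers: VAP-1 benzylamine, […] sodium phosphate pH 7.4, 30 min 37° C preincubation; MAO-A tyramine and MAO-B benzylamine, same buffer, room temp; DAO histamine, 50 mM HEPES pH 7.5, room temp. IC50 from 4-parameter fit of rates.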

Human MAO-B = biological target: T2, Human MAO-B (Homo sapiens, UniProt P27338); assay: MAO-B inhibition (Amplex Red continuous fluorescence assay); conditions: 30 min pre-incubation at room temp; substrate benzylamine; read-out: Human MAO-B IC50
T2 sequence (P27338 1-520): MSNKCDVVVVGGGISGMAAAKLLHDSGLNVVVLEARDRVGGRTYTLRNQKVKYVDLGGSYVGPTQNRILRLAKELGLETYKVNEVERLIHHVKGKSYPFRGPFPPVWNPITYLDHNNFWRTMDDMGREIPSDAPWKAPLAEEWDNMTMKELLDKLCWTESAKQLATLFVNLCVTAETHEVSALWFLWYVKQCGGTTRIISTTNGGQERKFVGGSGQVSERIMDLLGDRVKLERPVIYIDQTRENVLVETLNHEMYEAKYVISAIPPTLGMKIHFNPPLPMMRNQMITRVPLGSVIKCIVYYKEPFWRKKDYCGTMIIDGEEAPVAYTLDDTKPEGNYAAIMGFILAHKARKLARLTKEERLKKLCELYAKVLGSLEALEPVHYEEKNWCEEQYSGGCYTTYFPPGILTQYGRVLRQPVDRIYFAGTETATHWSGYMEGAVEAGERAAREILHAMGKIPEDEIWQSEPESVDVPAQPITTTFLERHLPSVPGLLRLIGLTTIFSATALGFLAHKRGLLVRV
Procedure, shortened: as §1

Human DAO = biological target: T3, Human DAO (Homo sapiens, UniProt P19801); assay: DAO inhibition (Amplex Red continuous fluorescence assay); conditions: 30 min pre-incubation at room temp; substrate histamine; read-out: Human DAO IC50
T3 sequence (P19801 20-751): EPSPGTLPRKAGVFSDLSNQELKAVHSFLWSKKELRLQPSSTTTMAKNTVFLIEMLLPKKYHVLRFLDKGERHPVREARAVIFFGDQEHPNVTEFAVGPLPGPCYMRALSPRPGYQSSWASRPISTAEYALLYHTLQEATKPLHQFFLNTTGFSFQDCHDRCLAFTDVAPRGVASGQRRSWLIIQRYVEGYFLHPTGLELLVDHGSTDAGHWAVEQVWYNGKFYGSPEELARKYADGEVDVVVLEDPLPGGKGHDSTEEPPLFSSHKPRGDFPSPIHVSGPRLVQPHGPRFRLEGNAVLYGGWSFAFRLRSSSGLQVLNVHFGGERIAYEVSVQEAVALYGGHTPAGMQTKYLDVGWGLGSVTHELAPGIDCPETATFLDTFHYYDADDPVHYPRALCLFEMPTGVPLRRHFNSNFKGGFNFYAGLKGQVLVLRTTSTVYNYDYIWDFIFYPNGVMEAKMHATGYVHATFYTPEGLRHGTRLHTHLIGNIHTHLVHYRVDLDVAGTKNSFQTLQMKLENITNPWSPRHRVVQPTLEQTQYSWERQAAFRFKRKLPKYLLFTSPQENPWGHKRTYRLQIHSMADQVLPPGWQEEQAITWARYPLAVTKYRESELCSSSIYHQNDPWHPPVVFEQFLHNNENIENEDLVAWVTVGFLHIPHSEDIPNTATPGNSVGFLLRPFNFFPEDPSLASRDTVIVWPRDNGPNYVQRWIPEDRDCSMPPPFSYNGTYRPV
Procedure, shortened: as §1

Human VAP-1 = biological target: T4, Human VAP-1 (Homo sapiens, UniProt Q16853); assay: VAP-1 inhibition assay (Amplex Red continuous fluorescence assay); conditions: 30 min pre-incubation at 37° C.; substrate benzylamine; read-out: Human VAP-1 IC50
T4 sequence (Q16853 1-763): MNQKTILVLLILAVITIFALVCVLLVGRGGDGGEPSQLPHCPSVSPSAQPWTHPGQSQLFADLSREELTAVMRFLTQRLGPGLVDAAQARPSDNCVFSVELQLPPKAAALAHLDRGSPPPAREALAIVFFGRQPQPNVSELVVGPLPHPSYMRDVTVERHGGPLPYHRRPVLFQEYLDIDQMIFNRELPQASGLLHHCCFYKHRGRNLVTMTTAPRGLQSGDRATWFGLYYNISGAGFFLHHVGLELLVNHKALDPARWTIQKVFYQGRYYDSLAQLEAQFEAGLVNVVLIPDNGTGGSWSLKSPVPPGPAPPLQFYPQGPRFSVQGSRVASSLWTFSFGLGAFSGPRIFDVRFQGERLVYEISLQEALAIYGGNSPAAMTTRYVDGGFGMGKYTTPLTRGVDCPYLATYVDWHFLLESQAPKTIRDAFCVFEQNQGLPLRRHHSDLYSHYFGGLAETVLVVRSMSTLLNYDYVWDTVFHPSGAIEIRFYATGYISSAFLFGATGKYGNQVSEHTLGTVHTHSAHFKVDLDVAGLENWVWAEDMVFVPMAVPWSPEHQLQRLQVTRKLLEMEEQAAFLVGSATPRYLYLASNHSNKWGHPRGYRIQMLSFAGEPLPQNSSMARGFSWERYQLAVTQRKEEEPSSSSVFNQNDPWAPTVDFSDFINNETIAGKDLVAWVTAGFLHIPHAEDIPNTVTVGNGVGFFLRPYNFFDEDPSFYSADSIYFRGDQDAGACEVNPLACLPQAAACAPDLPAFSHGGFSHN
Procedure, shortened: as §1

NC/C(=C/F)COc1cnc(N2CC[C@H](O)C2)nc1 [Compound 80]
IC50 (Human MAO-A): > 10 µM | IC50 (Human MAO-B): > 10 µM | IC50 (Human DAO): < 3 µM | IC50 (Human VAP-1): < 3 µM

CO[C@H]1CCN(c2ncc(OC/C(=C/F)CN)cn2)C1 [Compound 81]
IC50 (Human MAO-A): > 10 µM | IC50 (Human MAO-B): > 10 µM | IC50 (Human DAO): < 3 µM | IC50 (Human VAP-1): < 3 µM

CCC(=O)Nc1ccc(OC/C(=C/F)CN)cc1 [Compound 82, (E)-N-(4-((2-(aminomethyl)-3-fluoroalkyl)oxy)phenyl)propionamide]
IC50 (Human MAO-A): 3 to 10 µM | IC50 (Human MAO-B): < 3 µM | IC50 (Human DAO): 3 to 10 µM | IC50 (Human VAP-1): < 3 µM
